Results as given in patent publication US11299461B2 (priority 2018, dated 2022).

Target: LF 263-C catalytic domain (anthrax lethal factor) (Bacillus anthracis, UniProt P15917)
Assay: biochemical

Sequence of LF 263-C catalytic domain (anthrax lethal factor) (P15917 296-809 limits assumed): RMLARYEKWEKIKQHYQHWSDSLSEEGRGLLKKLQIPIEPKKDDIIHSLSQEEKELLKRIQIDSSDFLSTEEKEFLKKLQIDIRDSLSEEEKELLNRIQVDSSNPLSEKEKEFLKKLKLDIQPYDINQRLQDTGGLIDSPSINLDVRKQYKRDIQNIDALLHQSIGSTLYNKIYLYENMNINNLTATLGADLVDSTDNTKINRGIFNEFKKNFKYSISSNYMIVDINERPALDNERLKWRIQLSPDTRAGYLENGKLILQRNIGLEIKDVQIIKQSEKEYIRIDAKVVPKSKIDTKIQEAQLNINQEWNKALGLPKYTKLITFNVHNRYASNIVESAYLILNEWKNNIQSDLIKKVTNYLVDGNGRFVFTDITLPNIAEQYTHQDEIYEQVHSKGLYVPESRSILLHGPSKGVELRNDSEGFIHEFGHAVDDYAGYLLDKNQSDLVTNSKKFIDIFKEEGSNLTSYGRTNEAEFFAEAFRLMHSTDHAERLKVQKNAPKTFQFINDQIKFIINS

| Structure (SMILES) | Ki |
| --- | --- |
| Cc1cc(C[C@H](CCCCN[C@@H](C)c2ccc(F)cn2)C(=O)NO)cc(C)c1F [Compound 24, (S)-2-(4-fluoro-3,5-dimethylbenzyl)-6-(((S)-1-(5-fluoropyridin-2-yl)ethyl)amino)-N-hydroxyhexanamide] | 0.44 nM |
| COc1ccc([C@H](NCCCC[C@@H](C[C@@H](OC)c2ccc(F)cc2)C(=O)NO)C(C)C)nc1 [Compound 49, (S)-2-((R)-2-(4-fluorophenyl)-2-methoxyethyl)-N-hydroxy-6-(((R)-1-(5-methoxypyridin-2-yl)-2-methylpropyl)amino)hexanamide] | 2.7 nM |
| Cc1cc(C[C@H](CCCCN[C@@H](c2ccc(Cl)cn2)C(C)C)C(=O)NO)cc(F)c1F [Compound 37, (S)-6-(((R)-1-(5-chloropyridin-2-yl)-2-methylpropyl)amino)-2-(3,4-difluoro-5-methylbenzyl)-N-hydroxyhexanamide] | 0.87 nM |
| COc1ccc(CN(C)CCCC[C@@H](Cc2cc(C)c(F)c(F)c2)C(=O)NO)nc1 [Compound 38, (S)-2-(3,4-difluoro-5-methylbenzyl)-N-hydroxy-6-(((5-methoxypyridin-2-yl)methyl)(methyl)amino)hexanamide] | 4.9 nM |
| CO[C@H](C[C@H](CCCCN[C@@H](c1ncc(Cl)cc1Cl)C(C)C)C(=O)NO)c1ccc(F)cc1 [Compound 53, (S)-6-(((R)-1-(3,5-dichloropyridin-2-yl)-2-methylpropyl)amino)-2-((R)-2-(4-fluorophenyl)-2-methoxyethyl)-N-hydroxyhexanamide] | 6.2 nM |
| Cc1cc(C[C@H](CCCCN[C@H](C)c2ccc(F)cn2)C(=O)NO)cc(C)c1F [Compound 10, (S)-2-(4-fluoro-3,5-dimethylbenzyl)-6-(((R)-1-(5-fluoropyridin-2-yl)ethyl)amino)-N-hydroxyhexanamide] | 0.15 nM |
| CO[C@H](C[C@H](CCCCN[C@@H](c1ccc(F)c(C)n1)C(C)C)C(=O)NO)c1ccc(F)cc1 [Compound 50, (S)-6-(((R)-1-(5-fluoro-6-methylpyridin-2-yl)-2-methylpropyl)amino)-2-((R)-2-(4-fluorophenyl)-2-methoxyethyl)-N-hydroxyhexanamide] | 2.7 nM |
| CC[C@@H](NCCCC[C@@H](C[C@@H](OC)c1ccc(F)cc1)C(=O)NO)c1ncc(Cl)cc1Cl [Compound 54, (S)-6-(((R)-1-(3,5-dichloropyridin-2-yl)propyl)amino)-2-((R)-2-(4-fluorophenyl)-2-methoxyethyl)-N-hydroxyhexanamide] | 2.4 nM |
| Cc1cc(C[C@H](CCCCN[C@@H](c2ccc(Cl)cn2)C(C)C)C(=O)NO)cc(Cl)c1F [Compound 31, (S)-2-(3-chloro-4-fluoro-5-methylbenzyl)-6-(((R)-1-(5-chloropyridin-2-yl)-2-methylpropyl)amino)-N-hydroxyhexanamide] | 0.26 nM |
| CO[C@H](C[C@H](CCCCNCc1ccc(Cl)cn1)C(=O)NO)c1ccc(F)cc1 [Compound 41, (S)-6-(((5-chloropyridin-2-yl)methyl)amino)-2-((R)-2-(4-fluorophenyl)-2-methoxyethyl)-N-hydroxyhexanamide] | 2.2 nM |
| CO[C@H](C[C@H](CCCCN[C@@H](c1ccc(F)cn1)C(C)C)C(=O)NO)c1ccc(F)cc1 [Compound 48, (S)-2-((R)-2-(4-fluorophenyl)-2-methoxyethyl)-6-(((R)-1-(5-fluoropyridin-2-yl)-2-methylpropyl)amino)-N-hydroxyhexanamide] | 0.62 nM |
| Cc1ccc([C@@H](C)NCCCC[C@@H](Cc2cc(C)c(F)c(C)c2)C(=O)NO)nc1 [Compound 11, (S)-2-(4-fluoro-3,5-dimethylbenzyl)-N-hydroxy-6-(((R)-1-(5-methylpyridin-2-yl)ethyl)amino)hexanamide] | 0.08 nM |
| COc1ccc(CN(C)CCCC[C@@H](Cc2cc(C)c(F)c(C)c2)C(=O)NO)nc1 [Compound 19, (S)-2-(4-fluoro-3,5-dimethylbenzyl)-N-hydroxy-6-(((5-methoxypyridin-2-yl)methyl)(methyl)amino)hexanamide] | 1.4 nM |
| CO[C@H](C[C@H](CCCCN[C@H](CO)c1ccc(F)cn1)C(=O)NO)c1ccc(F)cc1 [Compound 39, (S)-2-((R)-2-(4-fluorophenyl)-2-methoxyethyl)-6-(((S)-1-(5-fluoropyridin-2-yl)-2-hydroxyethyl)amino)-N-hydroxyhexanamide] | 1.7 nM |
| CCc1cc(Cl)cnc1CN(C)CCCC[C@@H](C[C@@H](OC)c1ccc(F)cc1)C(=O)NO [Compound 44, (S)-6-(((5-chloro-3-ethylpyridin-2-yl)methyl)(methyl)amino)-2-((R)-2-(4-fluorophenyl)-2-methoxyethyl)-N-hydroxyhexanamide] | 6.7 nM |
| CC[C@@H](NCCCC[C@@H](Nc1cc(C)c(F)c(C)c1)C(=O)NO)c1ncc(F)cc1F [Compound 5, (R)-6-(((R)-1-(3,5-difluoropyridin-2-yl)propyl)amino)-2-((4-fluoro-3,5-dimethylphenyl)amino)-N-hydroxyhexanamide] | 0.39 nM |
| COc1ccc(CN(C)CCCC[C@@H](Cc2cc(C)c(F)c(Cl)c2)C(=O)NO)nc1 [Compound 32, (S)-2-(3-chloro-4-fluoro-5-methylbenzyl)-N-hydroxy-6-(((5-methoxypyridin-2-yl)methyl)(methyl)amino)hexanamide] | 1.5 nM |
| Cc1ccc([C@@H](CO)NCCCC[C@@H](Nc2cc(C)c(F)c(C)c2)C(=O)NO)nc1 [Compound 1, (R)-2-((4-fluoro-3,5-dimethylphenyl)amino)-N-hydroxy-6-(((S)-2-hydroxy-1-(5-methylpyridin-2-yl)ethyl)amino)hexanamide] | 0.17 nM |
| Cc1cc(C[C@H](CCCCN[C@H](C)c2ccc(C(F)(F)F)cn2)C(=O)NO)cc(C)c1F [Compound 14, (S)-2-(4-fluoro-3,5-dimethylbenzyl)-N-hydroxy-6-(((R)-1-(5-(trifluoromethyl)pyridin-2-yl)ethyl)amino)hexanamide] | 1.3 nM |
| CCN(CCCC[C@@H](Cc1cc(C)c(F)c(C)c1)C(=O)NO)[C@H](C)c1ccc(C(F)(F)F)cn1 [Compound 15, (S)-6-(ethyl((R)-1-(5-(trifluoromethyl)pyridin-2-yl)ethyl)amino)-2-(4-fluoro-3,5-dimethylbenzyl)-N-hydroxyhexanamide] | 3.6 nM |
| CCN(CCCC[C@@H](C[C@@H](OC)c1ccc(F)cc1)C(=O)NO)Cc1ccc(Cl)cn1 [Compound 40, (S)-6-(((5-chloropyridin-2-yl)methyl)(ethyl)amino)-2-((R)-2-(4-fluorophenyl)-2-methoxyethyl)-N-hydroxyhexanamide] | 4.5 nM |
| Cc1cc(C[C@H](CCCCN[C@@H](c2ncc(F)cc2F)C(C)C)C(=O)NO)cc(C)c1F [Compound 23, (S)-6-(((R)-1-(3,5-difluoropyridin-2-yl)-2-methylpropyl)amino)-2-(4-fluoro-3,5-dimethylbenzyl)-N-hydroxyhexanamide] | 0.25 nM |
| Cc1cc(N[C@H](CCCCN[C@H](CO)c2ccc(F)cn2)C(=O)NO)cc(C)c1F [Compound 2, (R)-2-((4-fluoro-3,5-dimethylphenyl)amino)-6-(((S)-1-(5-fluoropyridin-2-yl)-2-hydroxyethyl)amino)-N-hydroxyhexanamide] | 0.14 nM |
| CC(C)[C@@H](NCCCC[C@@H](Cc1cc(Cl)c(F)c(Cl)c1)C(=O)NO)c1ccc(F)cn1 [Compound 34, (S)-2-(3,5-dichloro-4-fluorobenzyl)-6-(((R)-1-(5-fluoropyridin-2-yl)-2-methylpropyl)amino)-N-hydroxyhexanamide] | 0.6 nM |
